In paper PMC7356228, “Alvaxanthone, a Thymidylate Synthase Inhibitor with Nematocidal and Tumoricidal Activities” (Molecules, 2020):
Like-named read-outs stand apart in the source and are kept apart here.

Experiments:
TsTS = TsTS (Trichinella spiralis, UniProt Q9NDD3); assay: Inhibition of TS-catalyzed reaction (tritium release from [5-3H]dUMP); type: biochemical, T. spiralis; conditions: 20 µM dUMP; for IC50: IC50 Assessment; for remaining activity at 100 µM: compound 100 µM; for remaining activity at 1000 µM: compound 1000 µM
Excerpt: (§1) The recombinant human, rat, mouse, T. spiralis and C. elegans TS proteins were produced, purified and separated into phosphorylated and non-phosphorylated fraction, as previously described. TS activity was monitored, following tritium release from [5-^3H]dUMP, and its inhibition studied as earlier reported.

CeTS = biological target: T1, CeTS (Caenorhabditis elegans, UniProt Q9Y052); assay: as above; type: biochemical, C. elegans; conditions: for remaining activity at 100 µM: compound 100 µM
T1 sequence (Q9Y052 1-315): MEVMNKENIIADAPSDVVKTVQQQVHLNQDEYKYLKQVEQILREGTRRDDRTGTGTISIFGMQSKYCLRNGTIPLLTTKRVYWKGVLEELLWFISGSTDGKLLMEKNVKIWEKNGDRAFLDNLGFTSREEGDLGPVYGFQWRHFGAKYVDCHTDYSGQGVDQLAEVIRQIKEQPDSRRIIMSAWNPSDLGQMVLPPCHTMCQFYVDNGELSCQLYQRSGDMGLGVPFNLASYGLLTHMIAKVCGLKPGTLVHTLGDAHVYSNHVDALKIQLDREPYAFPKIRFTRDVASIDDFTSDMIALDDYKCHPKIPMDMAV
Excerpt: as §1

mTS = biological target: T2, mTS (Mus musculus, UniProt P07607); assay: as above; type: biochemical; conditions: for IC50: read-out: IC50 Assessment
T2 construct: made in house
Excerpt: as §1

hTS = biological target: T3, hTS (Homo sapiens, UniProt P04818); assay: as above; type: biochemical; conditions: for IC50: read-out: IC50 Assessment
T3 construct: made in house
Excerpt: as §1

[1] = system: BJ normal human skin fibroblasts; assay: Cytotoxicity, neutral red uptake (NR) assay; type: cell-based; conditions: Homo sapiens, Skin fibroblast
Method: (§2) Biological effect of alvaxanthone and rheediaxanthone B on normal (BJ) and cancer cells (U-118 MG and SCC-15) was estimated using two viability assays, the neutral red uptake (NR) and tetrazolium salts reduction (XTT) assays.
(§3) Human glioblastoma cells U-118 MG (ATCC® HTB-15), human squamous carcinoma cells SCC-15 (ATCC® CRL-1623), and normal human skin fibroblasts (ATCC® CRL-2522) were grown, their morphology checked, and number and viability estimated as earlier presented.
(§4) Influence of selected compounds on cells was tested by performing the cytotoxicity (NR and XTT) assays, proliferation assay, cell adhesion assay, cell migration assay, determination of intracellular ATP level, and apoptosis assay as previously reported.

[2] = system: U-118 MG human glioblastoma cells; assay: Cytotoxicity, neutral red uptake (NR) assay; type: cell-based
Method: as §2, §3, §4

[3] = system: SCC-15 human squamous carcinoma cells; assay: Cytotoxicity, neutral red uptake (NR) assay; type: cell-based; conditions: Homo sapiens
Method: as §2, §3, §4

C. elegans [4] = assay: Toxicity to C. elegans (population growth)
Method: C. elegans was maintained as previously described. The effect of the compounds studied on C. elegans population growth was determined as earlier presented.

C. elegans [5] = conditions: read-out: LC50 (C. elegans population growth); previously found; cited from earlier work
[6] = 20 µM dUMP, 50 µM meTHF, read-out: IC50 Assessment
[7] = compound 1000 µM, 20 µM dUMP, 50 µM meTHF, read-out: % Remaining Activity
[8] = neutral red assay, BJ, read-out: IC50
[9] = neutral red assay, U-118 MG, read-out: IC50
[10] = SCC-15, neutral red assay, read-out: IC50
[11] = 20 µM dUMP, 250 µM meTHF, read-out: IC50 Assessment
[12] = compound 1000 µM, 20 µM dUMP, 250 µM meTHF, read-out: % Remaining Activity
[13] = 20 µM dUMP, 250 µM meTHF, read-out: % Remaining Activity
[14] = compound 100 µM, 20 µM dUMP, 250 µM meTHF, read-out: % Remaining Activity
[15] = compound 100 µM, 20 µM dUMP, 50 µM meTHF, read-out: % Remaining Activity

Chain of TsTS (Q9NDD3 entry or part of it): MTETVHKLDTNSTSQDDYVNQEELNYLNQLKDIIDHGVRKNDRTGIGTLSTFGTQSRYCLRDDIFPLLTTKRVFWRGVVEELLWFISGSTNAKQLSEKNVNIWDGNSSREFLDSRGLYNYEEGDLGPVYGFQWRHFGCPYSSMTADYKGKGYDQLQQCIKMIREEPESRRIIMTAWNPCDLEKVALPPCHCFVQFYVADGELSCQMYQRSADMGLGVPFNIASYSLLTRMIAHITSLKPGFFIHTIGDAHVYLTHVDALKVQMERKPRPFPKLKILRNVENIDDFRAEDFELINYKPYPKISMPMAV
T3 sequence (P04818 whole entry): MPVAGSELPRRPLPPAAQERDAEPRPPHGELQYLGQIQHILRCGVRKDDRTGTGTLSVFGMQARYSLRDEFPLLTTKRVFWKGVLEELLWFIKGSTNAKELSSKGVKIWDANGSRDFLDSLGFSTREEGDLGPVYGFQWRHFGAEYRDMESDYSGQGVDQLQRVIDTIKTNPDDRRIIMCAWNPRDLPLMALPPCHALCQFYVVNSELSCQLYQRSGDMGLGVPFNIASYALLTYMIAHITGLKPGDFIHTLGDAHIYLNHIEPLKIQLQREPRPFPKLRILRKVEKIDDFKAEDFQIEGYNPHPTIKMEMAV
T2 sequence (P07607 whole entry): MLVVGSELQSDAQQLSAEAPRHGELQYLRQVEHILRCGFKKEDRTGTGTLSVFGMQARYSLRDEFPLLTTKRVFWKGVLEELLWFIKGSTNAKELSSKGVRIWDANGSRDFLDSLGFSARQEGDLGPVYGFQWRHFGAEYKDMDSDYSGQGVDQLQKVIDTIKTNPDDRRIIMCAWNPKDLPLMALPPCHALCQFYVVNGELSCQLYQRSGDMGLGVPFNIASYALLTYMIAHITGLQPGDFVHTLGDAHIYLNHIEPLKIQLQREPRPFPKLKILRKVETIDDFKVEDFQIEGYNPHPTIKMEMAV

| SMILES | IC50 (TsTS; 50 µM meTHF) [µM] | IC50 (TsTS; 250 µM meTHF) [µM] | remaining activity at 1000 µM (TsTS; 50 µM meTHF) [%] | remaining activity at 1000 µM (TsTS; 250 µM meTHF) [%] | IC50 (hTS; 20 µM dUMP, 50 µM meTHF) [µM] | IC50 (CeTS; [11]) [µM] | remaining activity at 1000 µM (CeTS; [12]) [%] | remaining activity at 1000 µM (mTS; [12]) [%] | remaining activity at 1000 µM (hTS; [12]) [%] | remaining activity at 100 µM (CeTS; [13]) [%] | remaining activity at 100 µM (mTS; [14]) [%] | remaining activity at 100 µM (hTS; [14]) [%] | further results |
| --- | --- | --- | --- | --- | --- | --- | --- | --- | --- | --- | --- | --- | --- |
| COc1c(O)cc2oc3ccccc3c(=O)c2c1O [1,3-OH-2-OMe-Xanthone (16), 1,3-OH-2-OMe-Xanthone] | > 100 | > 100 | 32 | 23 |  |  |  |  |  |  |  |  | remaining activity at 100 µM (TsTS; 50 µM meTHF): 82%; remaining activity at 100 µM (TsTS; 250 µM meTHF): 92%; remaining activity at 1000 µM (CeTS): 65%; IC50 (CeTS; IC50 Assessment, 20 µM dUMP, 250 µM meTHF): > 1000 µM; remaining activity at 100 µM (mTS): 67%; remaining activity at 1000 µM (mTS): 32%; remaining activity at 100 µM (hTS): 54%; remaining activity at 1000 µM (hTS): 27%; IC50 [1]: > 40 µM; IC50 ([2]; U-118-MG): > 40 µM; IC50 [3]: > 40 µM |
| COc1ccc2oc3cccc(O)c3c(=O)c2c1 [1-OH-7-OMe-Xanthone (19), 1-OH-7-OMe-Xanthone] | > 1000 |  | 89 |  | > 1000 |  |  |  |  |  |  |  | IC50 (CeTS; [6]): > 1000 µM; remaining activity at 1000 µM (CeTS; [7]): 81%; IC50 (mTS; 20 µM dUMP, 50 µM meTHF): > 1000 µM; remaining activity at 1000 µM (mTS; [7]): 94%; remaining activity at 1000 µM (hTS; [7]): 100%; IC50 [1, 8]: > 40 µM; IC50 [2, 9]: 40 µM; IC50 [3, 10]: > 40 µM |
| COc1ccc2oc3ccccc3c(=O)c2c1 [2-OMe-Xanthone (20), 2-OMe-Xanthone] | > 1000 |  | 92 |  | > 1000 |  |  |  |  |  |  |  | remaining activity at 1000 µM (CeTS): 95%; IC50 (CeTS; IC50 Assessment, 20 µM dUMP, 50 µM meTHF): > 1000 µM; remaining activity at 1000 µM (mTS): 84%; IC50 (mTS; 20 µM dUMP, 50 µM meTHF): > 1000 µM; remaining activity at 1000 µM (hTS): 88%; IC50 [1]: > 40 µM; LC50 (C. elegans [4]; Caenorhabditis elegans, read-out: LC50 (reduction of growth of the nematode population)): 33.8 ± 2.1 µM; IC50 ([2]; U-118-MG): > 40 µM; IC50 [3]: > 40 µM |
| COc1cc(/C=C/C(=O)O[C@H]2[C@H](O[C@@H]3O[C@@H](C)[C@H](O)[C@@H](O)[C@H]3O)[C@@H](O)[C@H](OCCc3ccc(O)c(O)c3)O[C@@H]2CO)ccc1O [Leucosceptoside A (13), Leucosceptoside A] |  |  |  | > 100 |  | > 1000 | 83 | 77 | 66 |  |  |  | IC50 (mTS; 20 µM dUMP, 250 µM meTHF): > 1000 µM; IC50 (hTS; 20 µM dUMP, 250 µM meTHF): > 1000 µM |
| CC(=O)Oc1c(O)cc(-c2oc3cc(O)cc(O)c3c(=O)c2O)cc1O [Myricetin-4′-OAc (7), Myricetin-4′-OAc] |  | > 1000 |  | 66 |  | > 100 | 28 | 49 | 31 | 69 | 61 | 56 | IC50 (hTS; 20 µM dUMP, 250 µM meTHF): > 1000 µM |
| O=C(CCc1ccc(O)cc1)c1c(O)cc(O)cc1O [Phloretin (4), Phloretin] |  | > 1000 |  | 61 |  | > 100 | 48 | 45 | 31 | 82 | 78 | 86 |  |
| CC1Oc2c(c3c(c4oc5c(O)c(O)ccc5c(=O)c24)C(C)(C)C(C)O3)C1(C)C (stereo not drawn) [Rheediaxanthone C (18), Rheediaxanthone C] | > 100 |  |  |  | > 100 |  |  |  |  |  |  |  | remaining activity at 100 µM (TsTS; 50 µM meTHF): 73%; IC50 (CeTS; [6]): > 100 µM; remaining activity at 100 µM (CeTS; 20 µM dUMP, 50 µM meTHF, read-out: % Remaining Activity): 71%; remaining activity at 10 µM (mTS; compound 10 µM, 20 µM dUMP, 50 µM meTHF): 77%; remaining activity at 100 µM (mTS; [15]): 39%; remaining activity at 100 µM (hTS; [15]): 57%; IC50 [1, 8]: 5.95 µM; toxicity for the worm (C. elegans [4]; in vivo): does not show toxicity for the worm; IC50 [2, 9]: 18.3 µM; IC50 [3, 10]: 11 µM |
| COc1c(C2(O)COc3cc(O)cc(O)c3C2=O)ccc2c1C=CC(C)(C)O2 (stereo not drawn) [Sophoronol (5), Sophoronol] |  | > 100 |  | 35 |  | > 100 | 8 | 10 | 8 | 77 | 75 | 75 | remaining activity at 100 µM (TsTS; 250 µM meTHF): 74% |
| COC(=O)Nc1nc2ccc(C(=O)c3ccccc3)cc2[nH]1 [mebendazole] |  |  |  |  |  |  |  |  |  |  |  |  | LC50 (C. elegans [5]): 4 µM |
